Where only a bound is given, the exact number is not on record here.

For the first test, the target named is soluble human BACE1 catalytic domain (Homo sapiens (Human), UniProt P56817). In words: BACE1 HTRF FRET Assay. The following applies: BACE1 Ki (nM). A general note: TR-FRET usually uses a lanthanide donor and a delayed reading to cut background.
Chain of soluble human BACE1 catalytic domain (P56817 75-416): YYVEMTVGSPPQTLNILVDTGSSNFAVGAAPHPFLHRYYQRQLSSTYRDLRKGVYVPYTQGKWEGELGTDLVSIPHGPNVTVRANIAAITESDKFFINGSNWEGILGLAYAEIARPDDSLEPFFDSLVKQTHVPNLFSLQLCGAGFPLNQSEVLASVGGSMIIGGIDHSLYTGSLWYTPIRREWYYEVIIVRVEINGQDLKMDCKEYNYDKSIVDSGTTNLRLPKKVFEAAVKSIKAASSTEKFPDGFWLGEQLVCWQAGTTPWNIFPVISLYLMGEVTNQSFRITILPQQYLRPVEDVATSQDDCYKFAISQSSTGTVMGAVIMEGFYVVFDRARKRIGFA
In turn, `C[C@@]1(c2sc(-c3nnc(-c4ccc(Cl)cc4)o3)cc2F)CS(=O)(=O)[C@@](C)(c2ccccn2)C(=N)N1` [Example 27bz-b] gave a Ki of 791 nM.

Still in this test, the particulars now being: BACE1 Ki (nM), Ki calculated from IC50 using the Cheng-Prusoff equation.
Turning to `CC1(C)C(=N)N[C@](C)(c2cc(NC(=O)c3ccc(F)cn3)ccc2F)CS1(=O)=O` [Example 1], the inhibition constant (Ki) is below 5 nM.

Still in this test, the particulars now being: read-out: BACE1 % Inh. at 10 μM, at 10 μM.
Consider `CC1(C)C(=N)N[C@](C)(c2cc(NC(=O)C3CCOCC3)cc(F)c2F)CS1(=O)=O` [Example 9bb], for which the inhibition at 10 µM turned out to be 48%.

The test is the same for the next values; noted with them: read-out: BACE1 Ki.
For `CC1(C)C(=N)N[C@](C)(c2cc(-c3cc(F)cc(-c4cnco4)c3)cs2)CS1(=O)=O` [Example 27am], the Ki came out at 80.6 nM.

Regarding `Cc1nnc(-c2cccc(-c3cc(F)c([C@]4(C)CS(=O)(=O)C(C)(C)C(=N)N4)s3)c2)o1` [Example 27ay], the Ki was found to be 480 nM.

For the molecule `C[C@]1(CC(F)(F)F)C(=N)N[C@](C)(c2sc(-c3nnc(-c4ccc(Cl)cc4)o3)cc2F)CS1(=O)=O` [Example 27by-a], the Ki is 29.5 nM.

With `COc1cncc(-c2cc(F)c([C@]3(C)CS(=O)(=O)C(C)(CC(F)(F)F)C(=N)N3)s2)c1` (stereo partly drawn) [Example 27bn-a], the inhibition constant (Ki) was found to be 8020 nM.

Regarding `C[C@@]1(c2ccccc2F)C(=N)N[C@](C)(c2sc(-c3cccc(C#N)c3)cc2F)CS1(=O)=O` [Example 27bs-b], the inhibition constant (Ki) turned out to be 3170 nM.

As to `CC1(C)C(=N)N[C@](C)(c2sc(-c3coc(-c4ccc(F)cc4)n3)cc2Cl)CS1(=O)=O` [Example 27x], the inhibition constant Ki was 1110 nM.

Consider `CC1(C)C(=N)N[C@](C)(c2sc(-c3ccn4ncnc4c3)cc2Cl)CS1(=O)=O` [Example 27n], for which the Ki was 273 nM.

As to `CC1(C)C(=N)N[C@](C)(c2sc(-c3cnc(-c4ccc(F)cc4)o3)cc2Cl)CS1(=O)=O` [Example 27v], the Ki came to 71.4 nM.

`CC1(C)C(=N)N[C@](C)(c2sc(-c3cn4ccsc4n3)cc2Cl)CS1(=O)=O` [Example 28b]: the inhibitory constant (Ki) is 2630 nM.

For the molecule `COc1cccc(-c2ccc3nc([C@]4(C)CS(=O)(=O)C(C)(C)C(=N)N4)sc3c2)c1` [Example 29d], the inhibitory constant (Ki) was determined as 2840 nM.

Consider `CC1(C)C(=N)N[C@](C)(c2sc(-c3ccc4ncnn4c3)cc2Cl)CS1(=O)=O` [Example 27q], for which the inhibition constant Ki was 297 nM.

For the molecule `COc1cccc(-c2cc(F)c([C@]3(C)CS(=O)(=O)[C@](C)(CC(F)(F)F)C(=N)N3)s2)c1` [Example 27bl-b], the inhibition constant (Ki) is 7310 nM.

For the molecule `CC1(C)C(=N)N[C@](C)(c2sc(-c3cnn4c3CCC4)cc2Cl)CS1(=O)=O` [Example 27m], the Ki turned out to be 5340 nM.

In the case of `CC1(C)C(=N)N[C@](C)(c2sc(-c3cccc(OC(F)F)c3)cc2Cl)CS1(=O)=O` [Example 27o], the Ki turned out to be 66.6 nM.

On to `COCC1(COC)C(=N)N[C@](C)(c2sc(-c3cccc(C#N)c3)cc2Cl)CS1(=O)=O` [Example 27bt], for which the inhibition constant (Ki) worked out at 135 nM.

As for `CC1(C)C(=N)N[C@](C)(c2nc3ccc(-c4cccnc4)cc3s2)CS1(=O)=O` [Example 29a], the Ki came to 3380 nM.

Still in this test, the particulars now being: read-out: BACE1 Ki; Ki calculated from IC50 using the Cheng-Prusoff equation.
Take `COc1cnc(C(=O)Nc2ccc(F)c([C@]3(C)CS(=O)(=O)[C@@](C)(C4CC4)C(=N)N3)c2)cn1` [Example 9cq-a]: the inhibitory constant (Ki) is 13.3 nM.

As for `CC1(C)C(=N)N[C@](C)(c2cc(NC(=O)c3ccc(C#N)cn3)ccc2F)CS1(=O)=O` [Example 9b], the Ki is below 0.5 nM.

As to `C[C@]1(CC(F)(F)F)C(=N)N[C@](C)(c2cc(NC(=O)c3ccc(F)cn3)ccc2F)CS1(=O)=O` [Example 9dp-a], the Ki was 6.2 nM.

Turning to `C[C@@]1(c2cc(NC(=O)c3ccc(F)cn3)ccc2F)CS(=O)(=O)[C@@](C)(c2cccc(F)c2)C(=N)N1` [Example 9da-a], the Ki is 3.6 nM.

Take `CC1(C)C(=N)N[C@](C)(c2cc(NC(=O)Cc3ncccn3)cc(F)c2F)CS1(=O)=O` [Example 9bx]: the inhibition constant (Ki) is 7070 nM.

On to `CCc1cccc(NC(=O)c2cc(Cl)c([C@]3(C)CS(=O)(=O)C(C)(C)C(=N)N3)s2)n1` [Example 19], for which the Ki is 134 nM.

Take `C[C@@]1(c2cc(NC(=O)c3ccc(F)cn3)ccc2F)CS(=O)(=O)[C@@](C)(c2ccc(F)cc2)C(=N)N1` [Example 9df-a]: the Ki is 2.3 nM.

Turning to `CC1(C)C(=N)N[C@](C)(c2cc(NC(=O)c3ccc(Cl)cc3)ccc2F)CS1(=O)=O` [Example 8], the Ki was 19 nM.

For the molecule `CC1(C)C(=N)N[C@](C)(c2sc(C(=O)Nc3cccc(F)n3)cc2Cl)CS1(=O)=O` [Example 21], the inhibition constant (Ki) was 265 nM.

As to `COc1cnc(C(=O)Nc2ccc(F)c([C@]3(C)CS(=O)(=O)[C@@](C)(C4CCC4)C(=N)N3)c2)cn1` [Example 9dy-a], the Ki is 7.5 nM.

`COc1ccc(C(=O)Nc2ccc(F)c([C@]3(C)CS(=O)(=O)[C@](C)(CC4CC4)C(=N)N3)c2)nc1` [Example 9dj-b]: the Ki is 26.9 nM.

Regarding `CCC(=O)Nc1cc(F)c(F)c([C@]2(C)CS(=O)(=O)C(C)(C)C(=N)N2)c1` [Example 9be], the inhibition constant (Ki) was 429 nM.

On to `COc1cnc(C(=O)Nc2ccc(F)c([C@]3(C)CS(=O)(=O)[C@@](C)(C4CCOCC4)C(=N)N3)c2)cn1` [Example 9du-a], for which the Ki was 3.4 nM.

As to `COc1ccc(C(=O)Nc2ccc(F)c([C@]3(C)CS(=O)(=O)C(C)(C)C(=N)N3)c2)nc1` [Example 9a], the Ki is 4.6 nM.

Turning to `CC1(C(=O)Nc2cc(F)c(F)c([C@]3(C)CS(=O)(=O)C(C)(C)C(=N)N3)c2)CC1` [Example 9az], the inhibition constant (Ki) is 708 nM.

For the molecule `CC1(C)C(=N)N[C@](C)(c2cc(NC(=O)CC3CC3)cc(F)c2F)CS1(=O)=O` [Example 9bv], the Ki is 1340 nM.

In the case of `COc1ccc(C(=O)Nc2ccc(F)c([C@]3(C)CS(=O)(=O)[C@@](C)(CC4CC4)C(=N)N3)c2)nc1` [Example 9dj-a], the Ki is 4.3 nM.

For the molecule `COc1ccc(C(=O)Nc2ccc(F)c([C@]3(C)CS(=O)(=O)[C@@](C)(CC(F)(F)F)C(=N)N3)c2)nc1` [Example 9dq-a], the Ki was 8.5 nM.

Turning to `CC1(C)C(=N)N[C@](C)(c2cc(NC(=O)c3ccc(F)cn3)ccc2F)CS1(=O)=O` [Example 1], the Ki is 1.2 nM.

`COc1cnc(C(=O)Nc2ccc(F)c([C@]3(C)CS(=O)(=O)[C@@](C)(c4ccc(F)cc4)C(=N)N3)c2)cn1` [Example 9dg-a]: the inhibitory constant (Ki) was 4.5 nM.

For the molecule `CC1(C)C(=N)N[C@](C)(c2cc(NC(=O)C3(C#N)CC3)ccc2F)CS1(=O)=O` [Example 9ah], the Ki is 210 nM.

Regarding `CC1(C)C(=N)N[C@](C)(c2cc(NC(=O)c3cocn3)ccc2F)CS1(=O)=O` [Example 9ap], the Ki is 39 nM.

Turning to `C[C@@]1(c2cc(NC(=O)c3ccc(F)cn3)ccc2F)CS(=O)(=O)[C@@](C)(c2cccc(C(F)(F)F)c2)C(=N)N1` [Example 9co-a], the Ki is 5.8 nM.

As to `CC1(C)C(=N)N[C@](C)(c2sc(C(=O)NCc3cnn4ccccc34)cc2Cl)CS1(=O)=O` [Example 22s], the Ki is 128 nM.

For the molecule `CC1(C)C(=N)N[C@](C)(c2sc(C(=O)NCc3ccc(C(F)(F)F)cn3)cc2Cl)CS1(=O)=O` [Example 22p], the Ki was 1800 nM.

For the molecule `CC1(C(=O)Nc2ccc(F)c([C@]3(C)CS(=O)(=O)C(C)(C)C(=N)N3)c2)COC1` [Example 9af], the Ki is 739 nM.

Turning to `CC1(C)C(=N)N[C@](C)(c2nc(NC(=O)c3ccc(F)cn3)ccc2F)CS1(=O)=O` [Example 9cd], the inhibition constant Ki was 48 nM.

Turning to `CC1(C)C(=N)N[C@](C)(c2nc(-c3ccc(C#N)s3)ccc2F)CS1(=O)=O` [Example 16c], the Ki is 3590 nM.

`CC1(C)C(=N)N[C@](C)(c2cc(NC(=O)c3ccc(Cl)cn3)cc(F)c2F)CS1(=O)=O` [Example 9l]: the Ki was 4.3 nM.

For the molecule `Cc1cnc(C(=O)Nc2ccc(F)c([C@]3(C)CS(=O)(=O)C(C)(C)C(=N)N3)c2)cn1` [Example 9ak], the Ki was 26 nM.

With `CC(=O)Nc1cc(F)c(F)c([C@]2(C)CS(=O)(=O)C(C)(C)C(=N)N2)c1` [Example 9bn], the inhibition constant (Ki) is 1020 nM.

Turning to `COc1cnc(C(=O)Nc2ccc(F)c([C@]3(C)CS(=O)(=O)[C@@](C)(CC4CC4)C(=N)N3)c2)cn1` [Example 9dk-a], the inhibition constant (Ki) was 7 nM.

As to `CC1(C)C(=N)N[C@](C)(c2cc(NC(=O)C(F)F)ccc2F)CS1(=O)=O` [Example 9au], the Ki is 195 nM.

For `CC1(C)C(=N)N[C@](C)(c2cc(NC(=O)C3(C#N)CC3)cc(F)c2F)CS1(=O)=O` [Example 9bj], the inhibition constant Ki is 485 nM.

Turning to `CC1(C)C(=N)N[C@](C)(c2sc(C(=O)NCc3ccsn3)cc2Cl)CS1(=O)=O` [Example 22v], the Ki was 292 nM.

The same test, now with this note: read-out: BACE1 inhibition, % Inh. at 10 μM, at 10 μM.
As for `C=CC[C@]1(C)C(=N)N[C@](C)(c2cc(N)ccc2F)CS1(=O)=O` [Entry 44], the inhibition at 10 µM was 38%.

Turning to `CC1(C)C(=N)N[C@](C)(c2c(F)c(F)cc([N+](=O)[O-])c2F)CS1(=O)=O` [Entry 15], the inhibition at 10 µM turned out to be 45%.

For the molecule `C[C@@]1(c2cccc(O)c2)C(=N)N[C@](C)(c2cc(F)ccc2F)CS1(=O)=O` [Example 34c-b], the inhibition at 10 µM amounted to 48%.

As for `COc1cccc([C@]2(C)C(=N)N[C@](C)(c3ccc(F)cc3F)CS2(=O)=O)c1` [Example 32f-b], the inhibition at 10 µM amounted to 30%.

The same test, now with this note: read-out: BACE1 inhibition, Ki.
On to `C[C@@]1(c2cc(F)ccc2F)CS(=O)(=O)[C@@](C)(c2cccc(O)c2)C(=N)N1` [Example 34c-a], for which the inhibition constant Ki was found to be 1000 nM.

Take `COCC1(COC)C(=N)N[C@](C)(c2sc(Br)cc2Cl)CS1(=O)=O` [Entry 89]: the Ki was 1900 nM.

Turning to `CC1(C)C(=N)N[C@](C)(c2c(F)ccc(N)c2F)CS1(=O)=O` [Entry 13], the inhibitory constant (Ki) is 3600 nM.

Turning to `C[C@]1(CC(F)(F)F)C(=N)N[C@](C)(c2sc(Br)cc2F)CS1(=O)=O` [Example 6F-3a], the inhibition constant (Ki) amounted to 500 nM.

As to `CC1(C)C(=N)N[C@](C)(c2c(F)cccc2F)CS1(=O)=O` [Entry 11], the inhibitory constant (Ki) was 1300 nM.

Consider `CC(C)[C@]1(C)C(=N)N[C@](C)(c2cc(N)ccc2F)CS1(=O)=O` [Entry 28], for which the Ki was found to be 7300 nM.

`C[C@]1(CC(F)(F)F)C(=N)N[C@](C)(c2cc(N)ccc2F)CS1(=O)=O` [Entry 35]: the Ki came to 3000 nM.

`C[C@@]1(c2sc(Br)cc2F)CS(=O)(=O)[C@@](C)(c2cccc(F)c2)C(=N)N1` [Entry 87]: the Ki worked out at 600 nM.

For orientation: Ki means the dissociation constant of the complex between target and ligand, obtained from inhibition or displacement.

(Values after patent publication US9499502B2, “5-substituted iminothiazines and their mono- and dioxides as BACE inhibitors, compositions, and their use” (Merck Sharp & Dohme Corp., priority 2011, dated 2016).)
